Molecules are shown by their SMILES.

A word on the inhibition: it is the change of the read-out against control, counted positive when it falls.

The target in one assay is T1, human GPR139 (Homo sapiens, UniProt Q6DWJ6).
T1 construct: expressed in transfected cells; host or cells: CHO-TREx (Life Technologies) cells, expression induced with doxycycline
T1 sequence (Q6DWJ6 1-353): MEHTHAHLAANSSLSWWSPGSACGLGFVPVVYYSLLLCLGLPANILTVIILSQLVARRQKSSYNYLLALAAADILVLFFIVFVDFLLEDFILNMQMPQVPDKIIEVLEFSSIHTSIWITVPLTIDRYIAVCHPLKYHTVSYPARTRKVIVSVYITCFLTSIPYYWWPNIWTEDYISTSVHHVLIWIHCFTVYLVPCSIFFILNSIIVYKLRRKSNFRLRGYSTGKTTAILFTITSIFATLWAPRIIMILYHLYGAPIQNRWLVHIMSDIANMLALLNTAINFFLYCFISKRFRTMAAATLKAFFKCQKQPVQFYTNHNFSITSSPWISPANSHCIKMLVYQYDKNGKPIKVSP
Briefly: Inhibition rate of the amount of IP1 in GPR139-expressed CHO cells (inverse agonist assay, Test Example 2). In kind it is cell-based. The following applies: CHO, relative value, inhibition rate of Example Compound 2 in Test Example 1 defined as 100%. As for the experimental part:
The measurement of IP1 was made using an IP-ONE HTFR assay kit (cis-bio) and CHO-TREx (Life Technologies) cells stably transfected with GPR139. The CHO-TREx cells expressed human GPR139 with a tetracycline-inducing element. The cells were cultured in a medium containing F12K and 10% tetracycline-free FBS, and the expression of human GPR139 was induced over the course of 17 hours under conditions of 37° C. and 5% CO2 in the presence of 2 μg/mL of doxycycline (Clontech, 631311) in the growth medium on the day before assay. On the day of the test, after the cells were washed with 10 mL of PBS, the cells were detached with TrypLE Express (Life Technologies) and centrifuged at 1,000 rpm to form pellets, and a cell suspension was then prepared using a stimulation buffer (cis-bio, included in the IP-ONE HTRF assay kit).
The compound was diluted with the stimulation buffer, and 4 μL was added to a 384-well white assay plate (Greiner). The cell suspension was added so that there were 2000 cells per well, and the assay plate was left to stand for 40 minutes at 37° C. Equal amounts of IP1-d2 and Ab-Crp solutions (both available from cis-bio, included in the IP-ONE HTRF assay kit) prepared with a lysis buffer (cis-bio, included in the IP-ONE HTRF assay kit) were mixed, and 4 μL was added to the assay plate and left to stand for one hour at room temperature. After the fluorescence strengths of two wavelengths were measured by the HTRF settings of Envision (PerkinElmer), the value of Ratio={(Signal 665 nm)/(Signal 615 nm)}×10000 was calculated.
Measurement of the Inhibition Rate of the Amount of IP1 in GPR139-Expressed CHO Cells (Inverse Agonist Assay)
The activities of the compounds of Examples 1 and 3 to 167 were expressed as relative values in Table 2 by measuring the inhibition rate of the amount of IP1 with the same method as in Test Example 1 and defining the inhibition rate of the amount of IP1 of Example Compound 2 in Test Example 1 as […].
With `CCn1cc(Cn2c(C)cn(-c3cc(N4CCO[C@H](C)C4)cc(Cl)c3F)c2=O)cn1` [Example 139, 1-{3-chloro-2-fluoro-5-[(2R)-2-methylmorpholin-4-yl]phenyl}-3-[(1-ethyl-1H-pyrazol-4-yl)methyl]-4-methyl-1,3-dihydro-2H-imidazol-2-one], the inhibition at 30 µM stood at 98%. As to `Cc1cn(Cc2cnn(C(C)C)c2)c(=O)n1-c1cc(C(F)(F)F)cc(OC[C@@H]2CCCO2)n1` [Example 148, 4-methyl-3-[6-{[(2S)-oxolan-2-yl]methoxy}-4-(trifluoromethyl)pyridin-2-yl]-1-{[1-(propan-2-yl)-1H-pyrazol-4-yl]methyl}-1,3-dihydro-2H-imidazol-2-one], the inhibition at 30 µM worked out at 101%. Take `CCn1cc(Cn2cc(C)n(-c3cc(C4CC4)cc(N4CCO[C@H](C)C4)c3)c2=O)cn1` [Example 104, 3-{3-cyclopropyl-5-[(2R)-2-methylmorpholin-4-yl]phenyl}-1-[(1-ethyl-1H-pyrazol-4-yl)methyl]-4-methyl-1,3-dihydro-2H-imidazol-2-one]: the inhibition at 30 µM was found to be 104%. The same measure, in the same setting: the figure for `Cc1cn(-c2nc(N3CCO[C@H](C)C3)cc(C(F)(F)F)c2F)c(=O)n1Cc1cnn(C(C)C)c1` [Example 64, 1-{3-fluoro-6-[(2R)-2-methylmorpholin-4-yl]-4-(trifluoromethyl)pyridin-2-yl}-4-methyl-3-{[1-(propan-2-yl)-1H-pyrazol-4-yl]methyl}-1,3-dihydro-2H-imidazol-2-one] is 98%. Same read-out and setting: as for `CCn1cc(Cn2c(C)cn(-c3cc(C(F)(F)F)nn3CCC3CCC3)c2=O)cn1` [Example 99, 1-[1-(2-Cyclobutylethyl)-3-(trifluoromethyl)-1H-pyrazole-5-yl]-3-[(I-ethyl-1H-pyrazole-4-yl)methyl]-4-methyl-1,3<dihydro-2H-imidazole-2-one], the figure is 101%; as for `CCn1cc(Cn2ccn(-c3cc(N4CCC(F)(F)CC4)cc(C(F)(F)F)c3F)c2=O)cn1` [Example 36, 1-[5-(4,4-difluoropiperidin-1-yl)-2-fluoro-3-(trifluoromethyl)phenyl]-3-[(1-ethyl-1H-pyrazol-4-yl)methyl]-1,3-dihydro-2H-imidazol-2-one], 101%. On the same count and under the same terms, the figure for `CCn1cc(Cn2ccn(-c3cc(N4CCC(F)(F)CC4)cc(C4CC4(F)F)c3F)c2=O)cn1` (stereo not shown) [Example 156, 1-[3-(2,2-difluorocyclopropyl)-5-(4,4-difluoropiperidin-1-yl)-2-fluorophenyl]-3-[(1-ethyl-1H-pyrazol-4-yl)methyl]-1,3-dihydro-2H-imidazol-2-one] is 98%; for `CCn1cc(Cn2c(C)cn(-c3cc(N4CCOC(F)(F)C4)cc(C(F)(F)F)c3F)c2=O)cn1` [Example 54, 1-[5-(2,2-difluoromorpholin-4-yl)-2-fluoro-3-(trifluoromethyl)phenyl]-3-[(1-ethyl-1H-pyrazol-4-yl)methyl]-4-methyl-1,3-dihydro-2H-imidazol-2-one] it is 101%. Consider `CCn1cc(Cn2ccn(-c3cc(OCC4CC(F)(F)C4)cc(C(F)F)c3Cl)c2=O)cn1` [Example 69, 1-{2-chloro-5-[(3,3-difluorocyclobutyl)methoxy]-3-(difluoromethyl)phenyl}-3-[(1-ethyl-1H-pyrazol-4-yl)methyl]-1,3-dihydro-2H-imidazol-2-one], for which the inhibition at 30 µM was 95%. On the same count and under the same terms, as for `CCn1cc(Cn2c(C)cn(-c3cc(OC4CCOCC4)cc(C(F)(F)F)c3F)c2=O)cn1` [Example 117, 3-[(1-ethyl-1H-pyrazol-4-yl)methyl]-1-{2-fluoro-5-[(oxan-4-yl)oxy]-3-(trifluoromethyl)phenyl}-4-methyl-1,3-dihydro-2H-imidazol-2-one], the figure is 100%; as for `CCn1cc(Cn2ccn(-c3cc(N4CCO[C@H](C)C4)cc(C(F)(F)F)c3Cl)c2=O)cn1` [Example 15, 1-{2-chloro-5-[(2R)-2-methylmorpholin-4-yl]-3-(trifluoromethyl)phenyl}-3-[(1-ethyl-1H-pyrazol-4-yl)methyl]-1,3-dihydro-2H-imidazol-2-one], 101%; as for `CCn1cc(Cn2c(C)c(C)n(-c3cc(OCC(F)(F)F)cc(N(C)C4CCOCC4)c3)c2=O)cn1` [Example 73, 1-[(1-ethyl-1H-pyrazol-4-yl)methyl]-4,5-dimethyl-3-{3-[methyl(oxan-4-yl)amino]-5-(2,2,2-trifluoroethoxy)phenyl}-1,3-dihydro-2H-imidazol-2-one], 99%. On the same count and under the same terms, the figure for `CCn1cc(Cn2c(C)c(C)n(-c3nc(N4CCO[C@H](C)C4)cc(C(F)(F)F)c3F)c2=O)cn1` [Example 59, 1-[(1-ethyl-1H-pyrazol-4-yl)methyl]-3-{3-fluoro-6-[(2R)-2-methylmorpholin-4-yl]-4-(trifluoromethyl)pyridin-2-yl}-4,5-dimethyl-1,3-dihydro-2H-imidazol-2-one] is 102%; for `CCn1cc(Cn2cc(C)n(-c3cc(N4CCC(F)(F)C4)cc(C(F)(F)F)c3)c2=O)cn1` [Example 24, 3-[3-(3,3-difluoropyrrolidin-1-yl)-5-(trifluoromethyl)phenyl]-1-[(1-ethyl-1H-pyrazol-4-yl)methyl]-4-methyl-1,3-dihydro-2H-imidazol-2-one] it is 100%; for `CCc1nn(-c2cc(N3CCC(F)(F)CC3)cc(C(F)(F)F)c2F)c(=O)n1Cc1cnn(CC)c1` [Example 138, 2-[5-(4,4-difluoropiperidin-1-yl)-2-fluoro-3-(trifluoromethyl)phenyl]-5-ethyl-4-[(1-ethyl-1H-pyrazol-4-yl)methyl]-2,4-dihydro-3H-1,2,4-triazol-3-one] it is 100%.

Consider `CCn1cc(Cn2ccn(-c3cc(N4CCCC(F)(F)C4)cc(C(F)(F)F)c3F)c2=O)cn1` [Example 37, 1-[5-(3,3-difluoropiperidin-1-yl)-2-fluoro-3-(trifluoromethyl)phenyl]-3-[(1-ethyl-1H-pyrazol-4-yl)methyl]-1,3-dihydro-2H-imidazol-2-one], for which the inhibition at 30 µM was found to be 99%. Same read-out and setting: the figure for `CCn1cc(Cn2ccn(-c3nc(N4CCOC(C)(C)C4)cc(C(F)(F)F)c3F)c2=O)cn1` [Example 112, 1-[6-(2,2-dimethylmorpholin-4-yl)-3-fluoro-4-(trifluoromethyl)pyridin-2-yl]-3-[(1-ethyl-1H-pyrazol-4-yl)methyl]-1,3-dihydro-2H-imidazol-2-one] is 100%; for `CCn1cc(C(C)n2ccn(-c3cc(N4CCO[C@H](C)C4)cc(C(F)(F)F)c3F)c2=O)cn1` (stereo partly drawn) [Example 9, 1-[1-(1-ethyl-1H-pyrazol-4-yl)ethyl]-3-{2-fluoro-5-[(2R)-2-methylmorpholin-4-yl]-3-(trifluoromethyl)phenyl}-1,3-dihydro-2H-imidazol-2-one] it is 102%; for `CCn1cc(Cn2c(C)c(C)n(-c3cc(C(F)(F)F)cc(N4CCO[C@H](C)C4)n3)c2=O)cn1` [Example 60, 1-[(1-Ethyl-1H-pyrazole-4-yl)methyl]-4,5-dimethyl-3-{6-[(2R)-2-methylmorpholine-4-yl]-4-(trifluoromethyl)pyridine-2-yl}-1,3-dihydro-2H-imidazole-2-one] it is 101%.

With `Cc1cn(Cc2cnn(C(C)C)c2)c(=O)n1-c1cc(C2CC2)cc(N2CCO[C@H](C)C2)n1` [Example 126, 3-{4-cyclopropyl-6-[(2R)-2-methylmorpholin-4-yl]pyridin-2-yl}-4-methyl-1-{[1-(propan-2-yl)-1H-pyrazol-4-yl]methyl}-1,3-dihydro-2H-imidazol-2-one], the inhibition at 30 µM worked out at 100%.

The assay is the same for the next values; noted with them: relative value, inhibition rate of Example Compound 2 in Test Example 1 defined as 100%, 30 µM.
In the case of `CCn1cc(Cn2cc(C)n(-c3cc(OCC4CC4(F)F)cc(C(F)(F)F)c3)c2=O)cn1` (stereo not shown) [Example 51, 3-{3-[(2,2-difluorocyclopropyl)methoxy]-5-(trifluoromethyl)phenyl}-1-[(1-ethyl-1H-pyrazol-4-yl)methyl]-4-methyl-1,3-dihydro-2H-imidazol-2-one], the “Inhibition Rate at 30 μM” value is listed as 102%. Still for that read-out and setting: as for `CCn1cc(Cn2cc(C)n(-c3cc(OCC4CC4(F)F)cc(C(F)(F)F)c3)c2=O)cn1` (stereo not shown) [Example 50, 3-{3-[(2,2-difluorocyclopropyl)methoxy]-5-(trifluoromethyl)phenyl}-1-[(1-ethyl-1H-pyrazol-4-yl)methyl]-4-methyl-1,3-dihydro-2H-imidazol-2-one], the figure is 102%.
